Experimental findings from US20210353579A1, “HIGH PENETRATION COMPOSITIONS AND USES THEREOF” (Techfields Pharma Co., Ltd., priority 2006, published 2021) are described below.

Experiment [1] has as its system rats (SLAC/GK, type 2 diabetes). Description: Blood glucose in type 2 diabetes rats, transdermal. It counts as in vivo, rat. Particulars: diabetic rats (SLAC/GK); for Blood glucose, Average: average second to fifth week, no fasting, equal to 20 mg/kg of NSAIAs once per day for 5 weeks; for Blood glucose, Baseline: equal to 20 mg/kg of NSAIAs once per day. The text has this:
(§1) HPPs lower blood glucose level in rat models (SLAC/GK, type 2 diabetes, n=7). 50% acetone solution of diethylaminoethyl acetylsalicylate.acetylsalicylic acid salt (P-1, in acetone); 4-acetamidophenyl salicylyldimethylaminobutyrate.HCl (P-6), diethylaminoethyl 5-(2,4-difluorophenyl) acetylsalicylate.5-(2,4-difluorophenyl).acetylsalicylic acid salt (P-8), diethylaminoethyl salicylsalicylate.AcOH (P-9), diethylaminoethyl salicylate.AcOH (P-10), diethylaminoethyl 5-acetamido-acetylsalicylate (P-58), diethylaminoethyl acetylsalicylsalicylate.acetylsalicylsalicylic acid salt (P-59), diethylaminoethyl acetylsalicylsalicylate.acetylsalicylsalicylsalicylic acid salt (P-60) (equal to of 20 mg/kg of NSAIAs) are administered transdermally to the backs (about 1.5 cm^2) of rats (fur was shaved) once per day (at 8 am) for 5 weeks. The blood glucose levels are measured once every 3 days at 3 pm (no fasting) from the second week to the fifth week (Table 24). The blood lipid levels are measured at the end of the fifth week (Table 25).

The test system is the same in experiment [2]. Description: Blood lipid in type 2 diabetes rats, transdermal. It counts as in vivo, rat. Particulars: for Cholesterol (HDL), Baseline / Cholesterol (total), Baseline / Triglycerides, Baseline: equal to 20 mg/kg of NSAIAs; for Cholesterol (HDL), Average / Cholesterol (total), Average / Triglycerides, Average: end of the fifth week, equal to 20 mg/kg of NSAIAs once per day.
Excerpt: as §1

Experiment [3] has the same test system. Briefly: Blood glucose in type 2 diabetes rats, oral with food. Particulars: for Blood glucose, Diabetic rats, Average: average second to fifth week, no fasting, equal to 20 mg/kg of NSAIAs every day for 5 weeks; for Blood glucose, Diabetic rats, Baseline: equal to 20 mg/kg of NSAIAs. It counts as in vivo, rat. The source says: (§2) 20% acetone solution of diethylaminoethyl acetylsalicylate.acetylsalicylic acid salt (P-1, in acetone); 4-acetamidophenyl salicylyldimethylaminobutyrate.HCl (P-6), diethylaminoethyl 5-(2,4-difluorophenyl) acetylsalicylate.5-(2,4-difluorophenyl) acetylsalicylic acid salt (P-8), diethylaminoethyl salicylsalicylate.AcOH (P-9), diethylaminoethyl salicylate.AcOH (P-10), diethylaminoethyl 5-acetamido-acetylsalicylate (P-58), diethylaminoethyl acetylsalicylsalicylate. acetylsalicylsalicylic acid salt (P-59), diethylaminoethyl acetylsalicylsalicylate. acetylsalicylsalicylsalicylic acid salt (P-60) (equal to of 20 mg/kg of NSAIAs) were mixed with food and were orally administered to the rats (SLAC/GK, type 2 diabetes, n=7) with food every day for 5 weeks. The blood glucose levels were measured once every 3 days at 3 pm (no fasting) from the second week to the fifth week. The blood lipid levels were measured at the end of the fifth week.

Experiment [4] shares this test system. Description: Blood lipid in type 2 diabetes rats, oral with food. Type of experiment: in vivo, rat. To be noted: for Cholesterol (HDL), Baseline / Cholesterol (total), Baseline / Triglycerides, Baseline: equal to 20 mg/kg of NSAIAs; for Cholesterol (HDL), Average / Cholesterol (total), Average / Triglycerides, Average: end of the fifth week, equal to 20 mg/kg of NSAIAs every day.
Excerpt: as §2

Experiment [5] has as its system mice (SLAC:NOD-IDDM, type 1 diabetes). Briefly: Blood glucose in type 1 diabetes mice, transdermal. Type of experiment: in vivo, mouse. Particulars: for Blood glucose, Average: average fourth to seventh week, no fasting, equal to 30 mg/kg of NSAIAs once per day for 7 weeks; for Blood glucose, Baseline: equal to 30 mg/kg of NSAIAs. The source says:
The pro-drugs in this invention lower blood glucose levels in mouse models (SLAC:NOD-IDDM, type 1 diabetes, n=7). 50% acetone solution of diethylaminoethyl acetylsalicylate.acetylsalicylic acid salt (P-1, in acetone); 4-acetamidophenyl salicylyldimethylaminobutyrate.HCl (P-6), diethylaminoethyl 5-(2,4-difluorophenyl) acetylsalicylate.5-(2,4-difluorophenyl) acetylsalicylic acid salt (P-8), diethylaminoethyl salicylsalicylate.AcOH (P-9), diethylaminoethyl salicylate.AcOH (P-10), diethylaminoethyl 5-acetamido-acetylsalicylate (P-58), diethylaminoethyl acetylsalicylsalicylate. acetylsalicylsalicylic acid salt (P-59), diethylaminoethyl acetylsalicylsalicylate. acetylsalicylsalicylsalicylic acid salt (P-60) (equal to of 30 mg/kg of NSAIAs) were administered transdermally to the backs (about 1.5 cm^2) of mice (fur was shaved) once per day (at 8 am) for 7 weeks. The blood glucose levels were measured once every 3 days at 3 pm (no fasting) from the fourth week to the seventh week.

Experiment [6] concerns normal rats. Description: Blood glucose in normal rats, transdermal. Particulars: for Blood glucose, Average: normal rats (second Average line of Table 24), average second to fifth week, equal to 20 mg/kg of NSAIAs once per day; for Blood glucose, Baseline: normal rats (second Baseline line of Table 24), equal to 20 mg/kg of NSAIAs. It counts as in vivo, rat.
Excerpt: as §1, with “25). […]” for “25).”

Experiment [7] relates to normal rats. Description: Blood glucose in normal rats, oral with food. It counts as in vivo, rat. To be noted: for Blood glucose, Normal rats, Average: average second to fifth week, equal to 20 mg/kg of NSAIAs every day; for Blood glucose, Normal rats, Baseline: equal to 20 mg/kg of NSAIAs.

As for `CC(=O)Nc1ccc(OC(=O)c2ccccc2OC(=O)CCCN(C)C)cc1.Cl` [P-6], in experiment [1], the “Blood glucose, Average” value turned out to be 8.5 ± 2 mmol/L and the “Blood glucose, Baseline” value came to 16.7 ± 4 mmol/L. Also, in experiment [2], the “Cholesterol (HDL), Baseline” value was 1.3 ± 0.1 mmol/L; the “Cholesterol (total), Baseline” value is recorded as 7.3 ± 0.5 mmol/L; the “Triglycerides, Baseline” value stood at 5.3 ± 0.5 mmol/L; the “Cholesterol (HDL), Average” value was 1.3 ± 0.2 mmol/L. Moreover, in experiment [2], the “Cholesterol (total), Average” value was determined as 4.7 ± 0.4 mmol/L and the “Triglycerides, Average” value was determined as 2.3 ± 0.2 mmol/L. In addition, in experiment [3], the “Blood glucose, Diabetic rats, Average” value was determined as 7.5 ± 2 mmol/L and the “Blood glucose, Diabetic rats, Baseline” value is 16.1 ± 4 mmol/L. For the same compound, in experiment [4], the “Cholesterol (HDL), Baseline” value is recorded as 1.5 ± 0.1 mmol/L; the “Cholesterol (total), Baseline” value was found to be 7.5 ± 0.4 mmol/L; the “Triglycerides, Baseline” value was 5.5 ± 0.5 mmol/L; the “Cholesterol (HDL), Average” value amounted to 1.4 ± 0.2 mmol/L. In addition, in experiment [4], the “Cholesterol (total), Average” value is 4.9 ± 0.4 mmol/L and the “Triglycerides, Average” value is reported as 1.8 ± 0.2 mmol/L. In experiment [5], the “Blood glucose, Average” value is on record as 9.5 ± 2 mmol/L and the “Blood glucose, Baseline” value amounted to 27.7 ± 4 mmol/L. For the same compound, in the experiment on normal rats [6], the “Blood glucose, Average” value amounted to 6.5 ± 1 mmol/L and the “Blood glucose, Baseline” value is on record as 6.8 ± 1 mmol/L. In the experiment on normal rats [7], the “Blood glucose, Normal rats, Average” value is listed as 6.4 ± 1 mmol/L and the “Blood glucose, Normal rats, Baseline” value is given as 6.5 ± 1 mmol/L.
Regarding `CC(=O)Oc1ccc(-c2ccc(F)cc2F)cc1C(=O)O.CCN(CC)CCOC(=O)c1cc(-c2ccc(F)cc2F)ccc1OC(C)=O` [P-8, diethylaminoethyl 5-(2,4-difluorophenyl) acetylsalicylate.5-(2,4-difluorophenyl) acetylsalicylic acid salt], in experiment [1], the “Blood glucose, Average” value stood at 8.1 ± 1 mmol/L and the “Blood glucose, Baseline” value came to 17.1 ± 3 mmol/L. For the same compound, in experiment [2], the “Cholesterol (HDL), Baseline” value is reported as 1.6 ± 0.2 mmol/L; the “Cholesterol (total), Baseline” value is listed as 7.6 ± 0.6 mmol/L; the “Triglycerides, Baseline” value is reported as 5.6 ± 0.6 mmol/L; the “Cholesterol (HDL), Average” value amounted to 1.5 ± 0.2 mmol/L. Besides, in experiment [2], the “Cholesterol (total), Average” value was 5.3 ± 0.3 mmol/L and the “Triglycerides, Average” value is 1.9 ± 0.2 mmol/L. For the same compound, in experiment [3], the “Blood glucose, Diabetic rats, Average” value was 7.3 ± 1 mmol/L and the “Blood glucose, Diabetic rats, Baseline” value came out at 16.1 ± 3 mmol/L. For the same compound, in experiment [4], the “Cholesterol (HDL), Baseline” value was 1.4 ± 0.2 mmol/L; the “Cholesterol (total), Baseline” value stood at 7.8 ± 0.6 mmol/L; the “Triglycerides, Baseline” value is recorded as 5.6 ± 0.7 mmol/L; the “Cholesterol (HDL), Average” value is listed as 1.3 ± 0.2 mmol/L. In addition, in experiment [4], the “Cholesterol (total), Average” value turned out to be 5.7 ± 0.3 mmol/L and the “Triglycerides, Average” value came out at 1.8 ± 0.2 mmol/L. In experiment [5], the “Blood glucose, Average” value was 9.1 ± 1 mmol/L and the “Blood glucose, Baseline” value was determined as 29.1 ± 5 mmol/L. Also, in the experiment with normal rats [6], the “Blood glucose, Average” value is 6.8 ± 1 mmol/L and the “Blood glucose, Baseline” value is given as 7.1 ± 1 mmol/L. In addition, in the experiment on normal rats [7], the “Blood glucose, Normal rats, Average” value is reported as 6.8 ± 1 mmol/L and the “Blood glucose, Normal rats, Baseline” value stood at 7.0 ± 1 mmol/L.
With `CCN(CC)CCOC(=O)c1cc(NC(C)=O)ccc1OC(C)=O` [P-58, diethylaminoethyl 5-acetamido-acetylsalicylate], in experiment [1], the “Blood glucose, Average” value was 8.4 ± 1 mmol/L and the “Blood glucose, Baseline” value came to 17.1 ± 3 mmol/L. Moreover, in experiment [2], the “Cholesterol (HDL), Baseline” value is reported as 1.3 ± 0.1 mmol/L; the “Cholesterol (total), Baseline” value came to 7.8 ± 0.5 mmol/L; the “Triglycerides, Baseline” value is 5.3 ± 0.5 mmol/L; the “Cholesterol (HDL), Average” value is 1.4 ± 0.2 mmol/L. For the same compound, in experiment [2], the “Cholesterol (total), Average” value worked out at 5.6 ± 0.4 mmol/L and the “Triglycerides, Average” value came to 2.4 ± 0.2 mmol/L. Also, in experiment [3], the “Blood glucose, Diabetic rats, Average” value was 8.4 ± 1 mmol/L and the “Blood glucose, Diabetic rats, Baseline” value is 17.0 ± 3 mmol/L. Further, in experiment [4], the “Cholesterol (HDL), Baseline” value was 1.8 ± 0.1 mmol/L; the “Cholesterol (total), Baseline” value turned out to be 7.9 ± 0.5 mmol/L; the “Triglycerides, Baseline” value was 5.5 ± 0.5 mmol/L; the “Cholesterol (HDL), Average” value was found to be 1.6 ± 0.2 mmol/L. In experiment [4], the “Cholesterol (total), Average” value is given as 5.8 ± 0.4 mmol/L and the “Triglycerides, Average” value was 1.8 ± 0.2 mmol/L. For the same compound, in experiment [5], the “Blood glucose, Average” value came out at 7.9 ± 1 mmol/L and the “Blood glucose, Baseline” value was 27.1 ± 3 mmol/L. Besides, in the experiment with normal rats [6], the “Blood glucose, Average” value turned out to be 7.1 ± 1 mmol/L and the “Blood glucose, Baseline” value is 6.9 ± 1 mmol/L. In addition, in the experiment with normal rats [7], the “Blood glucose, Normal rats, Average” value stood at 7.2 ± 1 mmol/L and the “Blood glucose, Normal rats, Baseline” value turned out to be 6.9 ± 1 mmol/L.
For the compound `CC(=O)Oc1ccccc1C(=O)Oc1ccccc1C(=O)Oc1ccccc1C(=O)O.CCN(CC)CCOC(=O)c1ccccc1OC(=O)c1ccccc1OC(C)=O` [P-60, diethylaminoethyl acetylsalicylsalicylate.acetylsalicylsalicylsalicylic acid salt], in experiment [1], the “Blood glucose, Average” value came to 8.6 ± 1 mmol/L and the “Blood glucose, Baseline” value is 15.5 ± 3 mmol/L. In addition, in experiment [2], the “Cholesterol (HDL), Baseline” value was found to be 1.3 ± 0.2 mmol/L; the “Cholesterol (total), Baseline” value is 7.3 ± 0.6 mmol/L; the “Triglycerides, Baseline” value turned out to be 5.3 ± 0.6 mmol/L; the “Cholesterol (HDL), Average” value turned out to be 1.5 ± 0.2 mmol/L. For the same compound, in experiment [2], the “Cholesterol (total), Average” value was 5.6 ± 0.3 mmol/L and the “Triglycerides, Average” value was 2.5 ± 0.2 mmol/L. In addition, in experiment [3], the “Blood glucose, Diabetic rats, Average” value is given as 7.9 ± 1 mmol/L and the “Blood glucose, Diabetic rats, Baseline” value is listed as 16.5 ± 3 mmol/L. In experiment [4], the “Cholesterol (HDL), Baseline” value is recorded as 1.5 ± 0.2 mmol/L; the “Cholesterol (total), Baseline” value is reported as 7.5 ± 0.5 mmol/L; the “Triglycerides, Baseline” value is 5.2 ± 0.5 mmol/L; the “Cholesterol (HDL), Average” value is on record as 1.6 ± 0.2 mmol/L. For the same compound, in experiment [4], the “Cholesterol (total), Average” value is given as 5.5 ± 0.3 mmol/L and the “Triglycerides, Average” value is 2.5 ± 0.2 mmol/L. In addition, in experiment [5], the “Blood glucose, Average” value is listed as 8.6 ± 1 mmol/L and the “Blood glucose, Baseline” value worked out at 25.5 ± 3 mmol/L. Also, in the experiment on normal rats [6], the “Blood glucose, Average” value was 7.5 ± 1 mmol/L and the “Blood glucose, Baseline” value turned out to be 6.6 ± 1 mmol/L. In the experiment on normal rats [7], the “Blood glucose, Normal rats, Average” value is recorded as 7.3 ± 1 mmol/L and the “Blood glucose, Normal rats, Baseline” value is 6.8 ± 1 mmol/L.
